The text below walks through data of patent US12209075B2, “Pyridine-sulfonamide derivatives as sodium channel inhibitors” (GENENTECH, INC., priority 2018, dated 2025).

Where a name gives a salt, the structure may show the parent alone.

Sequence of hNav1.7 (Q15858 whole entry, looked up): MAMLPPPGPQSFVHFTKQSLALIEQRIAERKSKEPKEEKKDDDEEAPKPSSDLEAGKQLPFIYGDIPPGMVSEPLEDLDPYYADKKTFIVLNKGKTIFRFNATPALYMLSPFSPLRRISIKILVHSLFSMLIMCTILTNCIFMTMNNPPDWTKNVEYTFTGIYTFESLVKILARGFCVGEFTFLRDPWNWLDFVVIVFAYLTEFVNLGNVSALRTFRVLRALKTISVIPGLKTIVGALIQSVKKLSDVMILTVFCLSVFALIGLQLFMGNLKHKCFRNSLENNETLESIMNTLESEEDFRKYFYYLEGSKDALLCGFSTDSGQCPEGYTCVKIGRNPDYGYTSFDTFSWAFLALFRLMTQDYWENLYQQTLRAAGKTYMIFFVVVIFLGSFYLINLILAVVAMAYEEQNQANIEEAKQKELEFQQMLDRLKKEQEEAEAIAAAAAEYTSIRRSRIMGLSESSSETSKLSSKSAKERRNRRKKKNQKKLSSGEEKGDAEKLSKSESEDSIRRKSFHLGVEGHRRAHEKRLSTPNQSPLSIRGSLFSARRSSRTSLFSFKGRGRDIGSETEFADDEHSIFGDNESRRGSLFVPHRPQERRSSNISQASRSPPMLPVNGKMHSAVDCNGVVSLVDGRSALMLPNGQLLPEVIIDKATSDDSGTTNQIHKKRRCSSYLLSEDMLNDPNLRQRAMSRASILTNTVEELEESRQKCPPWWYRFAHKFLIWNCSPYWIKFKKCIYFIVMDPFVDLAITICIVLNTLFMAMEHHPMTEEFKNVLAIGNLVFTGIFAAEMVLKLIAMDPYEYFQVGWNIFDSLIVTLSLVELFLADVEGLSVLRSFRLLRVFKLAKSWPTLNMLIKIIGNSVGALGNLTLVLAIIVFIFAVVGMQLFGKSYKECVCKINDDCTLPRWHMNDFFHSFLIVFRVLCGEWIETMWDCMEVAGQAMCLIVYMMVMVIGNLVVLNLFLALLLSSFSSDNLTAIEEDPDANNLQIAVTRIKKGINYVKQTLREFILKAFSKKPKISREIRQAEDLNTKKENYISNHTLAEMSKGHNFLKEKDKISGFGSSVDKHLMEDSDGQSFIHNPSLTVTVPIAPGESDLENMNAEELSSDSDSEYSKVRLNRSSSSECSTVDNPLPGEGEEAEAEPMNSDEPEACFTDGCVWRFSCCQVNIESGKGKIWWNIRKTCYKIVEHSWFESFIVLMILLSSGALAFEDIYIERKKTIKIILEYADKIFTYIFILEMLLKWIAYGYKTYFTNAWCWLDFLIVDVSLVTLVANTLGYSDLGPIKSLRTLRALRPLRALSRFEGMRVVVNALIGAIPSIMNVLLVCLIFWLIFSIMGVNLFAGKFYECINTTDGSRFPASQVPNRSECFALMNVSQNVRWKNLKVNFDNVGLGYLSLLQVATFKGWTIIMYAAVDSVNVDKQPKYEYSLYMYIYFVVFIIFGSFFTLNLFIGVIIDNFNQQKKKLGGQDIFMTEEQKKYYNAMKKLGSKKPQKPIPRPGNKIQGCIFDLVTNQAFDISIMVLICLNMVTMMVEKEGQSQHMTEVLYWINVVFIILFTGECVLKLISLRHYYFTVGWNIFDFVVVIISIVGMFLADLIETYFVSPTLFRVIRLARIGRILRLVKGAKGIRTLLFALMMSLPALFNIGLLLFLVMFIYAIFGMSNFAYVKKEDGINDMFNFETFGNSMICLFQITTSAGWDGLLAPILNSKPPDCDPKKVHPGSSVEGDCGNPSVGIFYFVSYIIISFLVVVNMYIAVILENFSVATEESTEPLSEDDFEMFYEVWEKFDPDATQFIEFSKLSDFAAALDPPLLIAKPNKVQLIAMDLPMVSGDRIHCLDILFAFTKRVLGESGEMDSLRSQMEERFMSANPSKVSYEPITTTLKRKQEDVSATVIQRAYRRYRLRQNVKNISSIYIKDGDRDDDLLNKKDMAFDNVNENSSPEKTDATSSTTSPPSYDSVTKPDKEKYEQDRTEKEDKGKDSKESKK
Sequence of hNav1.7 (Q07699 whole entry partner, looked up): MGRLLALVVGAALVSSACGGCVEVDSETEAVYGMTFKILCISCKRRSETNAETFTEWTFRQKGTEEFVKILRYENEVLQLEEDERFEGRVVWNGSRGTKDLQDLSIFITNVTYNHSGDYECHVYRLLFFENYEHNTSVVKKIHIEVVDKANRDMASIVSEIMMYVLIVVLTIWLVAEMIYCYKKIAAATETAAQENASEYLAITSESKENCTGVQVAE

This test concerns the target hNav1.7 (Homo sapiens (Human), UniProt Q15858). Nature of the test: Tritiated compound binding to membranes from cells expressing hNav1.7 and the β1 subunit (Nav1.7 LBA EVO). The following applies: competitive binding vs [3H]compound, membranes with hNav1.7 and β1 subunit. As for the experimental part: Example 64a. Tritiated Compound Binding to Membranes Isolated from Cells that Heterologously Express hNav1.7 and the β1 Subunit
Preparation of membranes containing recombinantly expressed sodium channels: Frozen recombinant cell pellets are thawed on ice and diluted to 4 times the cell pellet weight with ice cold 50 mM Tris HCl, pH 7.4 buffer. The cell suspensions are homogenized on ice using a motorized glass dounce homogeniser. Homogenates are further diluted 8.4 times with ice cold 50 mM Tris HCl, pH 7.4 buffer and then centrifuged at 200×g at 4° C. for 15 minutes. The supernatants are collected and centrifuged at 10000×g at 4° C. for 50 min. The pellets are then re-suspended in 100 mM NaCl, 20 mM Tris HCl, pH 7.4 buffer containing 1% v/v protease inhibitors (Calbiochem) and re-homogenized on ice. The homogenized membranes are then processed through a syringe equipped with a 26 gauge needle. Protein concentrations arer determined by Bradford Assay and the membranes are stored at −80° C.
Radioligand Binding Studies: Saturation experiments. A competitive NaV1.7 inhibitor having a methyl group is tritiated. Three tritiums are incorporated in place of methyl hydrogens to generate [^3H]compound. Binding of this radioligand is performed in 5 mL borosilicate glass test tubes at room temperature. Binding is initiated by adding membranes to increasing concentrations of [^3H]compound in 100 mM NaCl, 20 mM Tris HCl, pH 7.4 buffer containing 0.01% w/v bovine serum albumin (BSA) for 18 h. Non-specific binding is determined in the presence of 1 μM unlabeled compound. After 18 h, the reactants are filtered through GF/C glass fiber filters presoaked in 0.5% w/v polyethylene imine. Filters are washed with 15 mL ice cold 100 mM NaCl, 20 mM Tris HCl, pH7.4 buffer containing 0.25% BSA to separate bound from free ligand. [^3H]compound bound to filters is quantified by liquid scintillation counting.
Competitive binding experiments: Binding reactions are performed in 96-well polypropylene plates at room temperature for 18 h. In 360 μL, membranes are incubated with 100 pM [^3H]compound and increasing concentrations of Test Compound. Non-specific binding is defined in the presence of 1 μM unlabeled compound. Reactions are transferred and filtered through 96-well glass fiber/C filter plates presoaked with 0.5% polyethylene imine. The filtered reactions are washed 5 times with 200 μL ice cold buffer containing 0.25% BSA. Bound radioactivity is determined by liquid scintillation counting.
Data Analysis: For saturation experiments, non-specific binding is subtracted from total binding to provide specific binding and these values are recalculated in terms of pmol ligand bound per mg protein. Saturation curves are constructed and dissociation constants are calculated using the single site ligand binding model: Beq=(Bmax*X)/(X+Kd), where Beq is the amount of ligand bound at equilibrium, Bmax is the maximum receptor density, Kd is the dissociation constant for the ligand, and X is the free ligand concentration. For competition studies percent inhibition is determined and IC50 values are calculated using a 4 parameter logistic model (% inhibition=(A+((B−A)/(1+((x/C)^D)))) using XLfit, where A and B are the maximal and minimum inhibition respectively, C is the IC50 concentration and D is the (Hill) slope.
Example 64b. Tritiated Compound Binding to Membranes Isolated from Cells that Heterologous Express hNav1.7 and the β1 Subunit
Preparation of membranes containing recombinantly expressed sodium channels: Following the procedure described in 31a, and making modifications as required to: centrifuge supernatants at 100000×g instead of 10000×g; re-suspend pellets in a buffer containing 0.01% BSA in addition to 100 mM NaCl, 20 mM Tris HCl, pH 7.4 buffer, and 1% v/v […]; and storing membranes at −80° C. in single use aliquots instead of pooled. […]
The IC50 is the concentration at which inhibition is half-maximal. A lower IC50 goes with greater potency. Consider `CN(C)[C@H]1C[C@@H](c2cccc(C(F)(F)F)c2)CC[C@@H]1Oc1ccc(S(=O)(=O)Nc2ccncn2)c(C2CC2)n1` [Example 34, 2-Cyclopropyl-6-(((1S,2S,4S)-2-(dimethylamino)-4-(3-(trifluoromethyl)phenyl)-cyclohexyl)oxy)-N-(pyrimidin-4-yl)pyridine-3-sulfonamide], for which the IC50 stood at 1.15 nM.

On to `Cc1nc(O[C@H]2CC[C@H](c3cccc(OC(F)F)c3)C[C@@H]2N(C)C)ccc1S(=O)(=O)Nc1ccncn1` [Example 52, 6-(((1S,2S,4S)-4-(3-(difluoromethoxy)phenyl)-2-(dimethylamino)cyclohexyl)oxy)-2-methyl-N-(pyrimidin-4-yl)pyridine-3-sulfonamide], for which the 50% inhibitory concentration (IC50) came out at 0.615 nM. For `CN(C)[C@H]1C[C@@H](c2cccc(C(F)(F)F)c2)CC[C@@H]1Nc1ccc(S(=O)(=O)Nc2ccncn2)nc1` [Example 5, 5-(((1S,2S,4S)-2-(Dimethylamino)-4-(3-(trifluoromethyl)phenyl)cyclohexyl)amino)-N-(pyrimidin-4-yl)pyridine-2-sulfonamide] the value was 66.4 nM; for `O=S(=O)(Nc1ccncn1)c1cnc(O[C@H]2CC[C@H](c3cccc(C(F)(F)F)n3)C[C@@H]2N2CCCC2)c(Cl)c1` [Example 40, 5-chloro-N-(pyrimidin-4-yl)-6-(((1S,2S,4S)-2-(pyrrolidin-1-yl)-4-(6-(trifluoromethyl)pyridin-2-yl)cyclohexyl)oxy)pyridine-3-sulfonamide], 0.955 nM; for `Cc1nc(O[C@H]2CC[C@H](c3cc(Cl)ccc3Cl)C[C@@H]2N(C)C)ccc1S(=O)(=O)Nc1ccncn1` [Example 39, 6-(((1S,2S,4S)-4-(2,5-dichlorophenyl)-2-(dimethylamino)cyclohexyl)oxy)-2-methyl-N-(pyrimidin-4-yl)pyridine-3-sulfonamide formate], 0.935 nM. For `Cc1nc(O[C@H]2CC[C@H](c3cccc(CC(F)(F)F)c3)C[C@@H]2N(C)C)ccc1S(=O)(=O)Nc1ccncn1` [Example 59, 6-(((1S,2S,4S)-2-(dimethylamino)-4-(3-(2,2,2-trifluoroethyl)phenyl)cyclohexyl)oxy)-2-methyl-N-(pyrimidin-4-yl)pyridine-3-sulfonamide] the value was 1.59 nM; for `Cc1cc(O[C@H]2CC[C@H](c3cccc(C(F)(F)F)c3)C[C@@H]2N(C)C)ncc1S(=O)(=O)Nc1ccncn1` [Example 32, 6-(((1S,2S,4S)-2-(Dimethylamino)-4-(3-(trifluoromethyl)phenyl)cyclohexyl)oxy)-4-methyl-N-(pyrimidin-4-yl)pyridine-3-sulfonamide], 2.07 nM.

The compound `Cc1nc(O[C@H]2CC[C@H](c3cc(C(F)(F)F)ccc3Cl)C[C@@H]2N(C)C)ccc1S(=O)(=O)Nc1ccncn1` [Example 38, 6-(((1S,2S,4S)-4-(2-chloro-5-(trifluoromethyl)phenyl)-2-(dimethylamino)cyclohexyl)oxy)-2-methyl-N-(pyrimidin-4-yl)pyridine-3-sulfonamide] returned an IC50 of 1.77 nM.

For `Cc1nc(O[C@H]2CC[C@H](c3ccc(Cl)c(C(F)(F)F)c3)C[C@@H]2N(C)C)ccc1S(=O)(=O)Nc1ccncn1` [Example 36, 6-(((1S,2S,4S)-4-(4-chloro-3-(trifluoromethyl)phenyl)-2-(dimethylamino)cyclohexyl)oxy)-2-methyl-N-(pyrimidin-4-yl)pyridine-3-sulfonamide], the IC50 came to 1.28 nM. For `Cc1nc(O[C@H]2CC[C@H](c3cccc(C(F)(F)F)c3)C[C@@H]2N(C)C)ccc1S(=O)(=O)Nc1ccncn1` [Example 23, 6-(((1S,2S,4S)-2-(Dimethylamino)-4-(3-(trifluoromethyl)phenyl)cyclohexyl)oxy)-2-methyl-N-(pyrimidin-4-yl)pyridine-3-sulfonamide formate] the value was 8.3 nM. For `CCc1cc(S(=O)(=O)Nc2ccncn2)cnc1O[C@H]1CC[C@H](c2cccc(C(F)(F)F)c2)C[C@@H]1N(C)C` [Example 24, 6-(((1S,2S,4S)-2-(Dimethylamino)-4-(3-(trifluoromethyl)phenyl)cyclohexyl)oxy)-5-ethyl-N-(pyrimidin-4-yl)pyridine-3-sulfonamide formate] the value was 66.4 nM; for `CN(C)[C@H]1C[C@@H](c2cccc(C(F)(F)F)c2)CC[C@@H]1Oc1ccc(S(=O)(=O)Nc2ccncn2)c(Cl)n1` [Example 22, 2-Chloro-6-(((1S,2S,4S)-2-(dimethylamino)-4-(3-(trifluoromethyl)phenyl)cyclohexyl)oxy)-N-(pyrimidin-4-yl)pyridine-3-sulfonamide], 40 nM; for `CN(C)[C@H]1C[C@@H](c2cccc(C(F)(F)F)c2)CC[C@@H]1Oc1ncc(S(=O)(=O)Nc2ccncn2)cc1Br` [Example 20, 5-bromo-6-(((1S,2S,4S)-2-(dimethylamino)-4-(3-(trifluoromethyl)phenyl)cyclohexyl)oxy)-N-(pyrimidin-4-yl)pyridine-3-sulfonamide formate], 28.2 nM. Compound `CCN(C)[C@H]1C[C@@H](c2cccc(C(F)(F)F)c2)CC[C@@H]1Oc1ccc(S(=O)(=O)Nc2ccncn2)c(C)n1` [Example 48, 6-(((1S,2S,4S)-2-(Ethyl(methyl)amino)-4-(3-(trifluoromethyl)phenyl)cyclohexyl)oxy)-2-methyl-N-(pyrimidin-4-yl)pyridine-3-sulfonamide] came in with an IC50 of 0.75 nM. For `CN(C)[C@H]1C[C@@H](c2cc(C(F)(F)F)ccc2F)CC[C@@H]1Oc1ccc(S(=O)(=O)Nc2ccncn2)c(Cl)n1` [Example 44, 2-Chloro-6-(((1S,2S,4S)-2-(dimethylamino)-4-(2-fluoro-5-(trifluoromethyl)phenyl)-cyclohexyl)oxy)-N-(pyrimidin-4-yl)pyridine-3-sulfonamide formate] the value was 0.72 nM; for `O=S(=O)(Nc1ccncn1)c1ccc(O[C@H]2CC[C@H](c3cccc(C(F)(F)F)c3)C[C@@H]2N2CCCCC2)nc1` [Example 26, 6-(((1S,2S,4S)-2-(piperidin-1-yl)-4-(3-(trifluoromethyl)phenyl)cyclohexyl)oxy)-N-(pyrimidin-4-yl)pyridine-3-sulfonamide], 4.88 nM. For `Cc1nc(O[C@H]2CC[C@H](c3cc(Cl)cc(C(F)(F)F)c3)C[C@@H]2N(C)C)ccc1S(=O)(=O)Nc1ccncn1` [Example 49, 6-(((1S,2S,4S)-4-(3-chloro-5-(trifluoromethyl)phenyl)-2-(dimethylamino)cyclohexyl)oxy)-2-methyl-N-(pyrimidin-4-yl)pyridine-3-sulfonamide] the value was 1.2 nM; for `CN(C)[C@H]1C[C@@H](c2cccc(C(F)(F)F)c2)CC[C@@H]1Oc1ncc(S(=O)(=O)Nc2ccncn2)cc1C#N` [Example 6, 5-Cyano-6-(((1S,2S,4S)-2-(dimethylamino)-4-(3-(trifluoromethyl)phenyl)cyclohexyl)oxy)-N-(pyrimidin-4-yl)pyridine-3-sulfonamide formate], 44.8 nM. For `CN(C)[C@H]1C[C@@H](c2cccc(C(F)(F)F)c2)CC[C@@H]1Oc1ncc(S(=O)(=O)Nc2ccncn2)cc1C(F)(F)F` [Example 14, 6-(((1S,2S,4S)-2-(dimethylamino)-4-(3-(trifluoromethyl)phenyl)cyclohexyl)oxy)-N-(pyrimidin-4-yl)-5-(trifluoromethyl)pyridine-3-sulfonamide] the value was 43.7 nM; for `CN(C)[C@H]1C[C@@H](c2cccc(C(F)(F)F)c2)CC[C@@H]1Oc1ncc(S(=O)(=O)Nc2ccncn2)cc1F` [Example 21, 6-(((1S,2S,4S)-2-(Dimethylamino)-4-(3-(trifluoromethyl)phenyl)cyclohexyl)oxy)-5-fluoro-N-(pyrimidin-4-yl)pyridine-3-sulfonamide], 9.17 nM.
